Measured values: US20120065187A1 (ALCON RESEARCH, LTD, priority 2008, published 2012)

Legend:
[1] = tested on: Hartley VAF outbred guinea pigs; experiment: Allergic conjunctivitis in passively sensitized guinea pigs (conjunctival EPO activity); type: in vivo; design: key: +: a 0.01% bid dose was statistically equivalent to dexamethasone with respect to reduction of EPO activity; −: the compound was statistically inferior to dexamethasone and not different than vehicle; settings: 0.01% bid topical, 1 hour prior to and 8 hours after ovalbumin challenge; reduction of conjunctival EPO activity vs dexamethasone
Protocol: (§1) Male Hartley VAF outbred guinea pigs were passively sensitized to ovalbumin by a single OD subconjunctival injection of undiluted guinea pig anti-ovalbumin antiserum 24 hours before OD topical challenge with 500 μg ovalbumin in saline. Control animals were injected with saline only and challenged with ovalbumin. To determine acute phase drug efficacy, 30 min after challenge animals were clinically scored by a masked observer for severity of signs of conjunctivitis based on a standard scale. Test compounds were administered topically 1 hour prior to challenge (QD protocol), or 1 hour prior to challenge and again 8 hours after challenge (BID protocol). Twenty-four hours after challenge, animals were euthanized and conjunctivae were harvested for determination of tissue eosinophil peroxidase (EPO) concentration as a marker of allergic inflammation. Homogenates of freshly collected tissues were prepared by shaking the tissues in 2 mL round-bottom tubes containing 0.5 mL of homogenization buffer (50 mM Tris HCl, pH 8.0, 6 mM KBr) and one 5-mm stainless steel bead on a Qiagen TissueLyser at 30 Hz for 5 min. Homogenates were frozen and thawed once, then centrifuged at 10,000 rpm for 5 min. EPO activity in supernatants was measured by reacting diluted homogenates with a solution of 6 mM o-phenylenediamine substrate and 8.8 mM H2O2 in homogenization buffer for 3 min. The reaction was stopped with 4M H2SO4 and absorbances were measured at […] on a spectrophotometric plate reader. Total EPO in samples was calculated from a standard curve of recombinant human EPO in each assay. EPO activity was normalized to total protein concentration (Pierce BCA assay) in supernatants. Background EPO activity was determined from the unsensitized, antigen-challenged control group. Percent inhibition was calculated from the sensitized, antigen-challenged, vehicle-treated control group in each experiment. Ovalbumin-injected animals dosed topically with 0.1% w/v dexamethasone (dex) served as positive control. Groups were compared by ANOVA with Dunnett's or Tukey's post-hoc tests where appropriate with significance assigned at the 95% confidence level.
(§2) The table below summarizes the results.

human H1 = molecular target: T1, human H1 (Homo sapiens, UniProt P35367); experiment: In vitro histamine receptor cell-based assay (aequorin bioluminescence), H1 antagonism; settings: CHO-K1 cells expressing human H1 and aequorin; histamine at EC80; read-out: H1 Antagonist EC50
T1 construct: host or cells: CHO-K1
T1 sequence (P35367 whole entry): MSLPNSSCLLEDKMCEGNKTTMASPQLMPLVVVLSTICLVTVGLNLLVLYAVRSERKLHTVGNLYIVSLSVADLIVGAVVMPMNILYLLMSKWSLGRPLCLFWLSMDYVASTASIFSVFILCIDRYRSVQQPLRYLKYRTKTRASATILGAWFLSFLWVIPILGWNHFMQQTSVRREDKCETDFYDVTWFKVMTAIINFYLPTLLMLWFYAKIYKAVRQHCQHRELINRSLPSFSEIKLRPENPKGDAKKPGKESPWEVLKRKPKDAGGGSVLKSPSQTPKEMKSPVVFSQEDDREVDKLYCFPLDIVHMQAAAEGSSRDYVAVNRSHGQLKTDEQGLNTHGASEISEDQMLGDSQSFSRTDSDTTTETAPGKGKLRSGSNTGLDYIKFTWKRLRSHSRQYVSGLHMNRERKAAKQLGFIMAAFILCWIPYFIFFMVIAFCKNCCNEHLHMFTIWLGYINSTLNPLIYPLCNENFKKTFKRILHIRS
In short: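 Antagonism read as drop in aequorin luminescence after histamine challenge at a predetermined EC80, following 15 min compound pretreatment at room temperature. Cells: CHO-K1 carrying human H1, or H4 with Gα16; signal as AUC or amplitude, normalised to 10 μM diphenhydramine (H1) or JNJ7777120 (H4).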

human H4 = molecular target: T2, human H4 (Homo sapiens, UniProt Q9H3N8); experiment: In vitro histamine receptor cell-based assay (aequorin bioluminescence), H4 antagonism; settings: CHO-K1 cells expressing human H4, aequorin and Gα16; histamine at EC80; read-out: H4 Antagonist EC50
T2 construct: host or cells: CHO-K1
In short: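 Antagonism read as loss of aequorin luminescence after histamine (EC80 final) addition, following 15 min room-temperature compound pretreatment of coelenterazine-h-loaded (5 μM) CHO-K1 cells co-expressing human H4 and Gα16. Efficacy given relative to 10 μM JNJ7777120; agonism excluded in separate no-histamine runs.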

[2] = tested on: Hartley VAF outbred guinea pigs; experiment: Allergic conjunctivitis in passively sensitized guinea pigs (conjunctival EPO activity); type: in vivo; design: key: +: a ≦0.1% qd dose was statistically equivalent to dexamethasone with respect to reduction of EPO activity; −: the compound was statistically inferior to dexamethasone and not different than vehicle; settings: ≦0.1% qd topical, 1 hour prior to ovalbumin challenge; reduction of conjunctival EPO activity vs dexamethasone
Protocol: as §1, §2

CD-1 mice = experiment: Model of scratching induced by histamine in CD-1 mice (assessment of H4 antagonism); type: in vivo; settings: 30 mg/kg oral gavage 30 min before i.d. histamine; bouts counted for 20 minutes; female CD-1 mice
Protocol: Assessment of H4 Antagonism—Model of Scratching Induced by Histamine in CD-1 mice.
Female CD-1 mice (Charles River, Hollister, Calif.), approximately 10 weeks old were housed under controlled conditions (12 h light: 12 h dark, 21° C.) and allowed ad libitum access to food (Purina LabDiet 5P14) and water. Animals were deprived of access to food and water for 1 hour during the experimental itch protocol. All studies were performed under the guidelines of the Institutional Animal Care and Use Committee of Kalypsys, Inc.
At least 24 hours prior to study initiation, the hair on the rostral dorsum of the animal was clipped to clear a location for intradermal (i.d.) injection of pruritogen (histamine, dissolved in Dulbecco's PBS [pH 7.4] at a concentration of 10 μmol per 20 μL). Animals were dosed by oral gavage with vehicle (9/0.5/0.5/90 PEG-400/Tween-80/PVP-K30/1% carboxymethylcellulose in water) or test compounds (formulated as suspensions in vehicle) at 30 mg/kg in 200 μL by means of a 20 gauge 1.5″ feeding needle affixed to a 1 mL syringe. There were 8 mice per study group. Thirty minutes after oral dosing, animals were injected i.d. with 20 μL of histamine. Immediately afterward animals were placed into individual sections of a standard acrylic cage for observation, which was recorded digitally for a 20 minute period by video cameras (Panasonic SDR-S70/PC) for later review.
Quantitation of induced itch was measured as described previously (Bell, J. K. et al., British Journal of Pharmacology, 142:374-380, 2004) by counting the number of scratching bouts per animal in the 20 minute period after i.d. injection. A scratching bout was defined as three rapid scratch movements of the hind paw in the area of the injection site. Activity with the fore paws was deemed to be grooming and not scratching, and thus was not counted. All data were analyzed using GraphPad Prism (San Diego, Calif.) software, and reported as mean percentage reduction in scratching bouts versus vehicle control. The significance of antagonist effect on agonist-induced itching was analyzed using the nonparametric Mann-Whitney test with P values <0.05 being designated as statistically significant.
Data reported as NT refers to the example having been not tested. It is expected that these compounds when tested will be active and will have utility similar to those that have been tested. In Table 2 below, entries with superscript “1” are statistically significant according to the criteria outlined in the protocol above. Entries with superscript “2” are examples that have been tested on two separate days and the results reported below are the mean of the two experiments

Structure (SMILES)	EC50 (human H1) [µM]	EC50 (human H4) [µM]	BID activity [1]	QD activity [2]	Scratching Bouts (% change from vehicle control) (CD-1 mice)
FC(F)(F)c1cc2c(cc1Cl)nc(N1CCNCC1)c1nncn12 [Example 45, 7-Chloro-4-(piperazin-1-yl)-8-(trifluoromethyl)-[1,2,4]triazolo[4,3-a]quinoxaline]	> 10	< 10		+	
Clc1ccc2nc(N3CCNCC3)c3nnnn3c2c1 [Example 19, 8-Chloro-4-(piperazin-1-yl)tetrazolo[1,5-a]quinoxaline]	> 10	< 10	+	+	
Cc1nc2c3cc(Cl)ccc3nc(N3CCNCC3)n2n1 [Example 112, 9-Chloro-2-methyl-5-(piperazin-1-yl)-[1,2,4]triazolo[1,5-c]quinazoline]	> 10	< 10			−73^1%
Cl.FC(F)(F)c1ccc2nc(N3CCNCC3)c3nnnn3c2c1 [Example 29, 4-(piperazin-1-yl)-8-(trifluoromethyl)tetrazolo[1,5-a]quinoxaline hydrochloride]	> 10	< 10	+	+	
FC(F)(F)c1ccc2nc(N3CCNCC3)c3nncn3c2c1 [Example 24, 4-(piperazin-1-yl)-8-(trifluoromethyl)-[1,2,4]triazolo[4,3-a]quinoxaline]	> 10	< 10		+	
CN1CCN(c2nc3ccc(Cl)cc3n3nnnc23)CC1 [Example 20, 8-Chloro-4-(4-methylpiperazin-1-yl)tetrazolo[1,5-a]quinoxaline]	> 10	< 10	−		−1%
Cc1nc2c3cc(C(F)(F)F)ccc3nc(N3CCN(C)CC3)n2n1 [Example 103, 2-Methyl-5-(4-methylpiperazin-1-yl)-9-(trifluoromethyl)-[1,2,4]triazolo[1,5-c]quinazoline]	> 10	< 10		+	−37%

Further lines, with some results ahead:

EC50 (human H1) [µM]	EC50 (human H4) [µM]	Structure (SMILES)	BID activity [1]	QD activity [2]	Scratching Bouts (% change from vehicle control) (CD-1 mice)
> 10	< 10	CN1CCN(c2nc3ccc(Cl)cc3c3conc23)CC1 [Example 166, 8-Chloro-4-(4-methylpiperazin-1-yl)isoxazolo[3,4-c]quinoline]	+	+	
> 10	< 10	Cc1nc2c3c(F)c(C(F)(F)F)ccc3nc(N3CCN(C)CC3)n2n1.Cl [Example 126, 10-fluoro-2-methyl-5-(4-methylpiperazin-1-yl)-9-(trifluoromethyl)-[1,2,4]triazolo[1,5-c]quinazoline hydrochloride]		+	
< 10	< 10	Cc1nc2c(N3CCN(C)CC3)nc3ccc(Cl)cc3n2n1 [Example 165, 8-chloro-2-methyl-4-(4-methylpiperazin-1-yl)-[1,2,4]triazolo[1,5-a]quinoxaline]	+	+	
> 10	< 10	Cc1nc2c3cc(C(F)(F)F)cc(F)c3nc(N3CCN(C)CC3)n2n1.Cl [Example 127, 7-fluoro-2-methyl-5-(4-methylpiperazin-1-yl)-9-(trifluoromethyl)-[1,2,4]triazolo[1,5-c]quinazoline hydrochloride]		+	
> 10	< 10	CN1CCN(c2nc3ccc(Cl)cc3c3c[nH]nc23)CC1 [Example 152, 8-Chloro-4-(4-methylpiperazin-1-yl)-2H-pyrazolo[3,4-c]quinoline]	−		−13%
> 10	< 10	Cc1nc2c3cc(Cl)ccc3nc(N3CCN(C)CC3)n2n1 [Example 113, 9-chloro-2-methyl-5-(4-methylpiperazin-1-yl)-[1,2,4]triazolo[1,5-c]quinazoline]	−		−66^1,2%
